Results from ChEMBL document CHEMBL1201862, “PubChem BioAssay data set” (2004).
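1) Cells in 96-well plates. 2) Compound, 48 h, 5 concentrations. 3) Linear interpolation between surrounding doses. 4) Unreached endpoint = highest concentration. Abbreviation: GI50, concentration required for 50% inhibition of growth.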 The source made the active and inactive calls. Cut-off read from the data, not from the text of the source: active = GI50 up to about 1.1 µM and inactive = higher.

Assays:
Assay in all cases: NCI-60 cell line screen, 48 h
UACC-62 = tested on: UACC-62
SW-620 = tested on: SW-620
OVCAR-3 = tested on: OVCAR-3
786-0 = tested on: 786-0
A549 = tested on: A549
LOX IMVI = tested on: LOX IMVI
HT-29 = tested on: HT-29
IGROV-1 = tested on: IGROV-1
Malme-3M = tested on: Malme-3M
M14 = tested on: M14
U-251 = tested on: U-251
HCT-116 = tested on: HCT-116
SNB-75 = tested on: SNB-75
KM12 = tested on: KM12
UO-31 = tested on: UO-31
OVCAR-4 = tested on: OVCAR-4
RPMI-8226 = tested on: RPMI-8226
SR = tested on: SR

Measured: GI50

CCCCCCCCCCCCCCCCCCOP1(=O)OCCO1
inactive: UACC-62 > 100 µM | SW-620 > 100 µM | OVCAR-3 > 100 µM | 786-0 > 100 µM | A549 79.4 µM | LOX IMVI 52.1 µM | HT-29 > 100 µM | IGROV-1 > 100 µM | Malme-3M > 100 µM | M14 > 100 µM | U-251 27.9 µM | HCT-116 49.5 µM | SNB-75 > 100 µM | KM12 > 100 µM | UO-31 > 100 µM | OVCAR-4 > 100 µM | RPMI-8226 37.4 µM

O=C1OC(CC(=O)c2ccc(Cl)cc2)C(Cl)=C1Cl (stereo unspecified)
inactive: UACC-62 > 100 µM | SW-620 > 100 µM | OVCAR-3 > 100 µM | 786-0 > 100 µM | A549 > 100 µM | HT-29 > 100 µM | IGROV-1 > 100 µM | Malme-3M > 100 µM | M14 > 100 µM | U-251 > 100 µM | SR 48.3 µM | HCT-116 > 100 µM | SNB-75 > 100 µM | KM12 > 100 µM | UO-31 > 100 µM | OVCAR-4 > 100 µM | RPMI-8226 46.6 µM

COc1cc2c(cc1OC)C(=O)Cc1ccc(OC)c(OC)c1CN(C)CC2
inactive: UACC-62 > 100 µM | SW-620 > 100 µM | OVCAR-3 > 100 µM | 786-0 > 100 µM | A549 > 100 µM | LOX IMVI > 100 µM | HT-29 > 100 µM | IGROV-1 > 100 µM | Malme-3M > 100 µM | M14 > 100 µM | U-251 > 100 µM | HCT-116 > 100 µM | SNB-75 > 100 µM | KM12 > 100 µM | UO-31 > 100 µM | OVCAR-4 > 100 µM | RPMI-8226 > 100 µM

Cc1nc2ccncc2[nH]1
inactive: UACC-62 > 100 µM | SW-620 > 100 µM | OVCAR-3 > 100 µM | 786-0 > 100 µM | A549 > 100 µM | LOX IMVI > 100 µM | HT-29 > 100 µM | IGROV-1 > 100 µM | Malme-3M > 100 µM | M14 > 100 µM | U-251 > 100 µM | SR > 100 µM | HCT-116 > 100 µM | SNB-75 24.8 µM | UO-31 > 100 µM | OVCAR-4 > 100 µM

N#Cc1cccc(N2C(=O)c3ccc(C(=O)c4ccc5c(c4)C(=O)N(c4cccc(C#N)c4)C5=O)cc3C2=O)c1
inactive: UACC-62 > 100 µM | SW-620 > 100 µM | OVCAR-3 > 100 µM | 786-0 64.4 µM | A549 > 100 µM | LOX IMVI > 100 µM | HT-29 > 100 µM | IGROV-1 > 100 µM | Malme-3M > 100 µM | M14 > 100 µM | U-251 35.8 µM | HCT-116 > 100 µM | SNB-75 35.6 µM | KM12 > 100 µM | UO-31 > 100 µM | OVCAR-4 > 100 µM | RPMI-8226 > 100 µM

O=C1CC(O)(c2ccccc2)C(c2ccccc2)=C1c1ccccc1 (stereo unspecified)
inactive: UACC-62 29.5 µM | SW-620 94.4 µM | OVCAR-3 29.4 µM | 786-0 45 µM | A549 39.1 µM | LOX IMVI 38.2 µM | HT-29 42.8 µM | IGROV-1 44 µM | Malme-3M 46 µM | M14 35.4 µM | SNB-75 27.8 µM | KM12 37.9 µM | OVCAR-4 34.1 µM | RPMI-8226 20.7 µM

CCOC(=O)Cn1c(=O)n(C)c(=O)c2[nH]cnc21
inactive: UACC-62 > 100 µM | SW-620 > 100 µM | OVCAR-3 > 100 µM | 786-0 > 100 µM | A549 > 100 µM | HT-29 > 100 µM | IGROV-1 > 100 µM | Malme-3M > 100 µM | M14 > 100 µM | U-251 > 100 µM | SR > 100 µM | HCT-116 > 100 µM | SNB-75 > 100 µM | KM12 > 100 µM | UO-31 > 100 µM | RPMI-8226 > 100 µM

CN1c2ccccc2N(C)C2C1N(C)c1ccccc1N2C (stereo unspecified)
inactive: UACC-62 5.15 µM | SW-620 7.85 µM | OVCAR-3 8.71 µM | 786-0 32.9 µM | A549 26.8 µM | LOX IMVI 5.25 µM | HT-29 7.78 µM | IGROV-1 20.7 µM | Malme-3M 16.6 µM | M14 18.2 µM | U-251 26.1 µM | HCT-116 12.7 µM | SNB-75 6.9 µM | KM12 16 µM | UO-31 31.6 µM | OVCAR-4 26 µM | RPMI-8226 5.11 µM

COc1cc2c(cc1O)[C@H](C)C(c1ccc(Cl)cc1)O2 (stereo partly specified)
inactive: UACC-62 21.2 µM | SW-620 17.4 µM | OVCAR-3 37.4 µM | 786-0 17.1 µM | A549 24.9 µM | LOX IMVI 16 µM | HT-29 30.9 µM | IGROV-1 22.5 µM | Malme-3M 24.6 µM | M14 22.2 µM | U-251 19.1 µM | HCT-116 16.1 µM | SNB-75 2.72 µM | KM12 25.2 µM | UO-31 24.4 µM | OVCAR-4 32.1 µM | RPMI-8226 6.34 µM

C=C1C(=O)c2cc3c(cc2C(c2cc(OC)c(OC)c(OC)c2)[C@@H]1C(=O)O)OCO3 (stereo partly specified)
inactive: UACC-62 27 µM | SW-620 53.2 µM | OVCAR-3 23.2 µM | 786-0 37 µM | A549 80.4 µM | LOX IMVI 43.6 µM | HT-29 37.2 µM | IGROV-1 82 µM | Malme-3M 50.6 µM | M14 28.1 µM | U-251 49.9 µM | HCT-116 48.4 µM | SNB-75 20.5 µM | KM12 44.5 µM | UO-31 58.6 µM | RPMI-8226 39.3 µM

C/C=C(\NC(=O)C(CCCCN)NC(=O)C(C)NC(=O)C1CSC(C)C(NC(=O)C2CSCC(NC(=O)C(C)NC(=O)C(N)C(C)CC)C(=O)NC(CCCCN)C(=O)NC(Cc3ccccc3)C(=O)NC(CC(C)C)C(=O)N2)C(=O)N2CCCC2C(=O)NCC(=O)N1)C(=O)NCC(=O)NC1CSCC2NC(=O)C(Cc3ccc(O)cc3)NC(=O)C(CSC=CNC2=O)NC(=O)C(CC(N)=O)NC(=O)C(Cc2ccccc2)NC1=O (stereo unspecified)
inactive: UACC-62 37.6 µM | SW-620 > 100 µM | OVCAR-3 > 100 µM | 786-0 35.6 µM | A549 > 100 µM | LOX IMVI > 100 µM | HT-29 > 100 µM | IGROV-1 > 100 µM | M14 > 100 µM | U-251 > 100 µM | SR > 100 µM | HCT-116 > 100 µM | SNB-75 20.3 µM | KM12 66.2 µM | OVCAR-4 > 100 µM

COc1ccc(/C(=N/NC(N)=O)C2(O)C(=O)Nc3ccc([N+](=O)[O-])cc32)cc1 (stereo unspecified)
inactive: UACC-62 20 µM | SW-620 22.8 µM | OVCAR-3 18.1 µM | 786-0 15.7 µM | A549 55.6 µM | HT-29 19.4 µM | IGROV-1 31 µM | Malme-3M > 10 µM | M14 15.3 µM | U-251 > 10 µM | SR 17.4 µM | HCT-116 14.9 µM | SNB-75 20.6 µM | KM12 22.6 µM | UO-31 20.5 µM | OVCAR-4 13.6 µM | RPMI-8226 25.6 µM
